Experimental data published in ChEMBL document CHEMBL1201862, “PubChem BioAssay data set” (2004).
Calls of active or inactive are those of the source.

Tests used:
Insulin-degrading enzyme = molecular target: T1, Insulin-degrading enzyme (Homo sapiens, UniProt P14735); assay: Dose Response: Fluorescence polarization-based cell-based high throughput dose response assay for inhibitors of insulin-degrading enzyme (IDE). [Related pubchem assays: 434962 (Primary screen (IDE inhibitors in singlicate)), 449730 (Counterscreen (Cytotoxicity in triplicate)), 435028 (Confirmation (IDE inhibitors in triplicate)), 434984 (Summary …; assay type: functional
T1 sequence (P14735 whole entry): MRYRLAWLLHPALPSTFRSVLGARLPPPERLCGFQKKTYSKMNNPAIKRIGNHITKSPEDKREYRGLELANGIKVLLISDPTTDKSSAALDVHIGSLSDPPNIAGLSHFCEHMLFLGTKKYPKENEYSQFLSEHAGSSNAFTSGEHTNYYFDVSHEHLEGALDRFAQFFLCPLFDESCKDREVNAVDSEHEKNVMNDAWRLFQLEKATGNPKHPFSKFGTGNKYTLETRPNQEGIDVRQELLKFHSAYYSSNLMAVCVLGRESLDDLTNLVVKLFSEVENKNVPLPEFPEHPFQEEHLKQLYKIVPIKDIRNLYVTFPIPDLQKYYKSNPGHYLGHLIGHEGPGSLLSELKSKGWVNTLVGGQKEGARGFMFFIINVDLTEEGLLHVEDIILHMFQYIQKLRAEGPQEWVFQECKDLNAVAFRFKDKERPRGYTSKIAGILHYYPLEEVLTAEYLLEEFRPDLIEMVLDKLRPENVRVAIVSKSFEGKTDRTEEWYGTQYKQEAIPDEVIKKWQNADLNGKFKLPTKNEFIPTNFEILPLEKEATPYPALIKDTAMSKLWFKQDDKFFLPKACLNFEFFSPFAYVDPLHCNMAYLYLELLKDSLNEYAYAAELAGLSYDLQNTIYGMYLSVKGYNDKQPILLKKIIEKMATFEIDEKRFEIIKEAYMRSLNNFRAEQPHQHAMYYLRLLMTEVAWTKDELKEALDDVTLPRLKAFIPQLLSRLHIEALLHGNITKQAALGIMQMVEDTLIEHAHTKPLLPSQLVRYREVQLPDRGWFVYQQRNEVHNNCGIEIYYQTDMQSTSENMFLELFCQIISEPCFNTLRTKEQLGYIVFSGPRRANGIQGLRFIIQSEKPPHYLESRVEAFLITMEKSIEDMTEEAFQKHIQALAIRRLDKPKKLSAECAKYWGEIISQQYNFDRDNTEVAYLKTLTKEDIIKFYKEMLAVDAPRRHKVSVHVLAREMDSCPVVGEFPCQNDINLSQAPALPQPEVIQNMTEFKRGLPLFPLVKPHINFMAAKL

[1] = molecular target: Hepatocyte nuclear factor 4-alpha (Homo sapiens, UniProt P41235); assay type: functional, cell-based;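 further: biochemical luminescence-based dose-response counterscreen measuring inhibition of HNF4 dimerization, run alongside a screen for blockers of ABHD5–perilipin-5 interaction; split luciferase complementation of HNF4 fusion proteins in cell lysate measuring dimerization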
Hepatocyte nuclear factor 4-alpha, sequence (P41235 whole entry, the tested form may be a part): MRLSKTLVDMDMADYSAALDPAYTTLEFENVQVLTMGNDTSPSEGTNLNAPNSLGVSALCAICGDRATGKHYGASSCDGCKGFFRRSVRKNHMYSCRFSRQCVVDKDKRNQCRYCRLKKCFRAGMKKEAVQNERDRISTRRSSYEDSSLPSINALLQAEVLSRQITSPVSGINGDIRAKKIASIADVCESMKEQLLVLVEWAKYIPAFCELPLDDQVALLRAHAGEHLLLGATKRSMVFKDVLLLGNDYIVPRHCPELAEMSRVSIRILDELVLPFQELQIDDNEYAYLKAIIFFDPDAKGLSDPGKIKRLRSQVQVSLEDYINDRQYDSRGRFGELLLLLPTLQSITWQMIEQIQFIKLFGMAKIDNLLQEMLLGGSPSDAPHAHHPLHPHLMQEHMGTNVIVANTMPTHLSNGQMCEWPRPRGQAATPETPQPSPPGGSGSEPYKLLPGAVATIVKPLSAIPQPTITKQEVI

[2] = molecular target: T2, Heat shock factor protein 1 (Mus musculus, UniProt P38532); assay: HSF1 potentiators in luciferase reporter cells, confirmation, cell-based, NIH3T3, luminescence, dose retest (AID 435004); assay type: functional;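 further: stress induced by proteasome inhibitor MG132 added 30 min after compound; luciferase reporter driven by HSF1 response element in NIH3T3 cells; actives raise luminescence as potentiators of the MG132 stress response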
T2 sequence (P38532 whole entry): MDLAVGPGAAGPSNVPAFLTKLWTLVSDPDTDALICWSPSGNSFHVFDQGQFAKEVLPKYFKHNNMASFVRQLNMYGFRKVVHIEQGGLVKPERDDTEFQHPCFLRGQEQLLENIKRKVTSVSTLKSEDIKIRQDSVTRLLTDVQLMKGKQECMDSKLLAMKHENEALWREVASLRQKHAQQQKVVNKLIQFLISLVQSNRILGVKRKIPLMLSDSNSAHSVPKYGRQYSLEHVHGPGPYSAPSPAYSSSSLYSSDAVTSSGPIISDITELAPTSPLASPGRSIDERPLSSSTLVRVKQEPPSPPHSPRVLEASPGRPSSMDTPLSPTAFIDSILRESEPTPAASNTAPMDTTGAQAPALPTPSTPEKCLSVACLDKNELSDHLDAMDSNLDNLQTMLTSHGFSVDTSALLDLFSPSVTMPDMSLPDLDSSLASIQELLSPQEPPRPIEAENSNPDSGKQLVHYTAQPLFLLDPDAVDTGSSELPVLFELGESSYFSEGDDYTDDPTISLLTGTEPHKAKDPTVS

[3] = Counterscreen for IDE inhibitors: Luminescence-based cell-based high throughput dose response assay to identify compounds that are cytotoxic to HEK cells. [Related pubchem assays: 434962 (Primary screen (IDE inhibitors in singlicate)), 449730 (Counterscreen (Cytotoxicity in triplicate)), 435028 (Confirmation (IDE inhibitors in triplicate)) …; assay type: functional; details: HEK293
NS3 = NS3 (Hepatitis C virus, UniProt A3EZJ3); assay: PubChem AID 2173; set-up: species or system Hepacivirus hominis
NS3, sequence (A3EZJ3 whole entry): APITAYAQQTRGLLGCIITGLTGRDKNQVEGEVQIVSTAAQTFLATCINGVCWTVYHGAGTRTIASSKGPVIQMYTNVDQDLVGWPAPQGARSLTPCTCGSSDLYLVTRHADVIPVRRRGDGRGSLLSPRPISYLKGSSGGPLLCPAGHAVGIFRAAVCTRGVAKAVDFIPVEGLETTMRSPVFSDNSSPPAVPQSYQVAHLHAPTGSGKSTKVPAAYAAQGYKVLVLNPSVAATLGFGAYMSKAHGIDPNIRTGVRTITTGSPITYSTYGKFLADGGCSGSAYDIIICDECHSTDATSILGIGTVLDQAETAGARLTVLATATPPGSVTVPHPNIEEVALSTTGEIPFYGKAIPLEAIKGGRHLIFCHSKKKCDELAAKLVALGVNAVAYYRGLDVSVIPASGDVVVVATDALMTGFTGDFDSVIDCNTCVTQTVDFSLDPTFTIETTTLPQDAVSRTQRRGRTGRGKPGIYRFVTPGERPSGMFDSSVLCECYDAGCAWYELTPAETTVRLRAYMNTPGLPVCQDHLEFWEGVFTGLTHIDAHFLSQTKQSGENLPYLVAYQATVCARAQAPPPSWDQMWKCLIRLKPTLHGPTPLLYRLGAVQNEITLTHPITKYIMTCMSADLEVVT

[4] = Luminescence Cell-Based Dose Retest to Confirm Inhibitors of Cancer Stem Cells. [Related pubchem assays (depositor defined):AID2717, AID2721]; assay type: functional; details: Homo sapiens
[5] = miR-122 activators in hepatoma reporter cells, dose response, cell-based, Huh7 psiCHECK-miR122, Renilla luciferase, cherry-picked (AID 651956); assay type: functional;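 further: huh7 hepatoma cells stably carrying a psiCHECK-2 miR-122 sensor plasmid; renilla luciferase signal reporting endogenous miR-122 activity after 48 h compound exposure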
H4 = assay: Luminescence Cell-Based Dose Response HTS to Identify Activators of 5'UTR Stem-Loop Driven Prion Protein mRNA Translation in H4 Neuroglioblastoma Cells. [Related pubchem assays: 1829 (Project Summary), 1814 (Primary HTS)]; assay type: functional; details: Homo sapiens
Vero [6] = assay: cells; assay type: functional; details: Chlorocebus sabaeus
[7] = molecular target: SWI/SNF-related matrix-associated actin-dependent regulator of chromatin subfamily A member 2 (Homo sapiens, UniProt P51531); assay: Luminescence-based cell-based high throughput dose response assay to identify activators of the function of SWI/SNF related, matrix associated, actin dependent regulator of chromatin, subfamily a, member 2 (SMARCA2, BRM).; assay type: functional
SWI/SNF-related matrix-associated actin-dependent regulator of chromatin subfamily A member 2, sequence (P51531 whole entry): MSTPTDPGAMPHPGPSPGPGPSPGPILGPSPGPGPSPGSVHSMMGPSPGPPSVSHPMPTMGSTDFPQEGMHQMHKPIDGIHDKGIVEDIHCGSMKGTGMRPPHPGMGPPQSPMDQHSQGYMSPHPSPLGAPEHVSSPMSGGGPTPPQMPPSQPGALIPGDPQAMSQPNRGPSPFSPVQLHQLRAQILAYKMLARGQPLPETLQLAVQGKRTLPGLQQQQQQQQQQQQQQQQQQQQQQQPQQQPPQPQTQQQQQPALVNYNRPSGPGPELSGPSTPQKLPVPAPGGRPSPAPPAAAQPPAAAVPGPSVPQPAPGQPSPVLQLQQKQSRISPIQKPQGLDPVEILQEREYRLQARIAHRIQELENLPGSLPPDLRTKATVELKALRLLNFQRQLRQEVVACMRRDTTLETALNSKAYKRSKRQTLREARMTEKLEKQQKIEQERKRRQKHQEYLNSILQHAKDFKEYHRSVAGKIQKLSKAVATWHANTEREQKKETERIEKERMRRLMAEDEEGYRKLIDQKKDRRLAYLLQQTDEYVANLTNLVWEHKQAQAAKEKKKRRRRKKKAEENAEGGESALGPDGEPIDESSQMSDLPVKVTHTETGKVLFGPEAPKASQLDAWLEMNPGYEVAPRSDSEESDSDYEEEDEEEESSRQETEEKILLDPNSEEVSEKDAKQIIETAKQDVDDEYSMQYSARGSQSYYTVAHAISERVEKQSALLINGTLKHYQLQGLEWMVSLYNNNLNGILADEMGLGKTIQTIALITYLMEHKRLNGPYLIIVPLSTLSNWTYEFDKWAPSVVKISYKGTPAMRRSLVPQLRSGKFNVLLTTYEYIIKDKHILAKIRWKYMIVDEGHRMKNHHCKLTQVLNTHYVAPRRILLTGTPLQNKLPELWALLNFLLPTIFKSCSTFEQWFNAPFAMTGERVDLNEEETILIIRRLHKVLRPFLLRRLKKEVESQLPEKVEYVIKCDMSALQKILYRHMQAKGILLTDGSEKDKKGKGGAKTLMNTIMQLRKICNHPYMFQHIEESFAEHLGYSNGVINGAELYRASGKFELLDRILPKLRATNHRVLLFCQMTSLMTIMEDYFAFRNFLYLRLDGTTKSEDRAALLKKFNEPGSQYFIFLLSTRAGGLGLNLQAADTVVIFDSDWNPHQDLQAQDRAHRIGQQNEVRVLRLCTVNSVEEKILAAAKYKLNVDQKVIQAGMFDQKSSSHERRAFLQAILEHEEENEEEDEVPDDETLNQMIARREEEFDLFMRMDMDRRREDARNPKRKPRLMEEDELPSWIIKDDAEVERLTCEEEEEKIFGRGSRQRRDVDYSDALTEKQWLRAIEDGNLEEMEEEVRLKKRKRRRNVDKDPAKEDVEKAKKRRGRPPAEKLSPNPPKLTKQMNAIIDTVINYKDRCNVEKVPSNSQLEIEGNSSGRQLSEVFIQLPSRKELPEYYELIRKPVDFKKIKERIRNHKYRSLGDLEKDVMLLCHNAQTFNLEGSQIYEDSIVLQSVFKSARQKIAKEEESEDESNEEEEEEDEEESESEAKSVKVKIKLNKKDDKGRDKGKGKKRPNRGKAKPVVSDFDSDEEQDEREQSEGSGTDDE

HEK293 [8] = assay: SAR Analysis of small molecule inhibitors of T-cell specific antigen receptor-induced NF-kB activation in a HEK-293T cell line using a luminescence assay - Set 2. [Related pubchem assays (depositor defined):AID435003, AID435012, AID489026]; assay type: functional, cell-based; details: Homo sapiens
[9] = Counterscreen for activators of the function of SWI/SNF related, matrix associated, actin dependent regulator of chromatin, subfamily a, member 2 (SMARCA2, BRM): Luminescence-based cell-based high throughput dose response assay to identify non-selective compounds using the VP16 reporter assay.; assay type: functional
HEK293 [10] = assay: cytotoxicity in HEK293T NF-kB-Luc cells, SAR follow-up, cytotoxicity control for NF-kB activator project, cell-based, resazurin fluorescence (AID 493251); assay type: functional; details: Homo sapiens
Vero [11] = assay: cells; assay type: functional, cell-based; details: Chlorocebus sabaeus
Jurkat = assay: SAR Analysis of small molecule inhibitors of T-cell specific antigen receptor-induced NF-kB activation in a Jurkat cell line using a luminescence assay - Set 2. [Related pubchem assays (depositor defined):AID435003, AID435012, AID465]; assay type: functional, cell-based; details: Homo sapiens
[12] = Luminescence Cell-Based Dose Response HTS to Identify Activators of Luciferase Translation or Activity in H4 […] Cells. [Related pubchem assays: 1829 (Project Summary), 1814 (Primary HTS)]; assay type: functional
[13] = Luminescence Cell-Based Dose Confirmation HTS to Identify Activators of 5'UTR Stem-Loop Driven Alpha-Synuclein mRNA Translation in H4 Neuroglioblastoma Cells. [Related pubchem assays: 1829 (Project Summary), 1814 (Primary HTS)]; assay type: functional

Cc1ccc(C(=O)/C=C/c2cc(Br)cc(Br)c2O)o1
IC50 (Insulin-degrading enzyme): 21 µM (not active) | IC50 [1]: 11 µM (inactive) | EC50 [2]: 16.8 µM (active) | IC50 [3]: 19.8 µM (not active) | IC50 (NS3): 9.14 µM (active) | AC50 [4]: 3.09 µM (active)

CC(C)C#Cc1ccc2c(c1)O[C@H](CN(C)C(=O)c1ccncc1)[C@H](C)CN([C@H](C)CO)S2(=O)=O
AC50 [5]: 3.04 µM (active)

CC(=O)c1ccc(NC(=O)c2ccc([N+](=O)[O-])o2)cc1
EC50 (H4): > 120 µM (not active) | CC50 (Vero [6]): 14.3 µM (active) | EC50 [7]: > 91.1 µM (inactive) | IC50 (HEK293 [8]): 38.9 µM (inactive) | EC50 [9]: > 91.1 µM (inactive) | IC50 (HEK293 [10]): 51.8 µM (inactive) | IC50 (Vero [11]): > 25 µM (active) | IC50 (Jurkat): 35.2 µM (inactive) | EC50 [12]: > 120 µM (not active) | EC50 [13]: > 120 µM (not active) | AC50 [4]: 4.95 µM (active)
